Data from US20220016060A1, “USE OF SODIUM 2-(3-PENTYLPHENYL)ACETATE IN THE TREATMENT OF ALSTRÖM SYNDROME” (LIMINAL BIOSCIENCES LIMITED, priority 2018, published 2022).
Where “and” joins values, the source holds several entries; their conditions need not be identical. Equal entries are not always repeated.

Experiments:
ALMS patients [1] = test: Albumin-to-creatinine ratio (ACR); format: in vivo, human; details: for Change from Baseline ACR, Mean (SD) / Change from Baseline ACR, Median / ACR: 800 mg daily oral; for ACR: individual subjects, listed as sodium 2-(3-pentylphenypacetate)
Procedure: The study was a Phase 2, single-centre, single-arm, open-label study of sodium 2-(3-pentylphenyl)acetate administered at a total daily oral dose of 800 mg for up to 72 weeks in subjects with ALMS was undertaken. The initial duration of the study was 24 weeks, and subjects were offered to enrol into an extension phase of 36 or 48 weeks. The schedule of study procedures for the enrolment, intervention, and assessments for participants is outlined in FIG. 1. Sodium 2-(3-pentylphenyl)acetate was formulated in soft gelatine capsules containing 200 mg of Sodium 2-(3-pentylphenyl)acetate (amorphous powder) per capsule, polyethylene glycol 400, National Formulary (NF), hydrochloric acid (for pH adjustment), and water. Albuminuria, the increase in excretion of urinary albumin, is marker of kidney damage and is assessed by measuring the ACR. The effect of sodium 2-(3-pentylphenyl)acetate on kidney histology/damage in ALMS patients was assessed by measuring the ACR.

ALMS patients [2] = test: Glycated hemoglobin (HbA1c); format: in vivo, human; details: for Change from Baseline HbA1c, Mean / Change from Baseline HbA1c, Median / HbA1c: 800 mg daily oral; for HbA1c: individual subjects
Procedure: The study was a Phase 2, single-centre, single-arm, open-label study of sodium 2-(3-pentylphenyl)acetate administered at a total daily oral dose of 800 mg for up to 72 weeks in subjects with ALMS was undertaken. The initial duration of the study was 24 weeks, and subjects were offered to enrol into an extension phase of 36 or 48 weeks. The schedule of study procedures for the enrolment, intervention, and assessments for participants is outlined in FIG. 1. Sodium 2-(3-pentylphenyl)acetate was formulated in soft gelatine capsules containing 200 mg of Sodium 2-(3-pentylphenyl)acetate (amorphous powder) per capsule, polyethylene glycol 400, National Formulary (NF), hydrochloric acid (for pH adjustment), and water. Glycated hemoglobin (HbA1c) is measured primarily to determine the three-month average blood sugar level, and is used as a diagnostic test for diabetes mellitus and as an assessment test for glycemic control in people with diabetes. HbA1c was assessed in ALMS patients treated with sodium 2-(3-pentylphenyl)acetate. There was a statistically significant mean decrease of 0.53% (p=0.0144) in HbA1c from baseline after 12 weeks of treatment (Table 16).

Compound: CCCCCc1cccc(CC(=O)[O-])c1.[Na+] [sodium 2-(3-pentylphenyl)acetate]
- Change from Baseline ACR, Mean (SD) (ALMS patients [1]; EP Week 12 (Week 36), N=10): 6.19 (16.707) mg/mmol
- Change from Baseline ACR, Median (ALMS patients [1]; EP Week 12 (Week 36), N=10): 1.25 mg/mmol
- Change from Baseline ACR, Mean (SD) (ALMS patients [1]; EP Week 24 (Week 48), N=10): 13.30 (28.301) mg/mmol
- Change from Baseline ACR, Median (ALMS patients [1]; EP Week 24 (Week 48), N=10): 1.30 mg/mmol
- Change from Baseline ACR, Mean (SD) (ALMS patients [1]; EP Week 36 (Week 60), N=9): 21.32 (44.461) mg/mmol
- Change from Baseline ACR, Median (ALMS patients [1]; EP Week 36 (Week 60), N=9): 1.60 mg/mmol
- increase in ACR from baseline (ALMS patients [1]; Subject 826-001-003, 32-day break in treatment): 13.8 mg/mmol
- increase in ACR from baseline (ALMS patients [1]; Subject 826-001-007, 32-day break in treatment): 133.8 mg/mmol
- increase in ACR from baseline (ALMS patients [1]; Subject 826-001-013, 30-day break in treatment): 43.9 mg/mmol
- Change from Baseline ACR, Mean (SD) (ALMS patients [1]; Week 12, N=12): 10.08 (20.848) mg/mmol
- Change from Baseline ACR, Median (ALMS patients [1]; Week 12, N=12): 0.90 mg/mmol
- Change from Baseline ACR, Mean (SD) (ALMS patients [1]; Week 24, N=11): 4.96 (14.993) mg/mmol
- Change from Baseline ACR, Median (ALMS patients [1]; Week 24, N=11): 0.30 mg/mmol
- ACR (ALMS patients [1]; EP Week 12 (Week 36)): 7.5 mg/mmol and 18.0 mg/mmol and 7.9 mg/mmol and 2.0 mg/mmol and 2.2 mg/mmol and 95.0 mg/mmol and <2.3 mg/mmol and 8.6 mg/mmol and 56.3 mg/mmol and 0.6 mg/mmol
- ACR (ALMS patients [1]; EP Week 24 (Week 48)): 6.2 mg/mmol and 21.6 mg/mmol and 6.7 mg/mmol and 2.1 mg/mmol and 0.8 mg/mmol and 111.7 mg/mmol and 0.7 mg/mmol and 12.9 mg/mmol and 106.5 mg/mmol and <2.3 mg/mmol
- ACR (ALMS patients [1]; EP Week 36 (Week 60)): 6.1 mg/mmol and 21.9 mg/mmol and 19.2 mg/mmol and <2.3 mg/mmol (2×) and 178.3 mg/mmol and 1.9 mg/mmol and 8.6 mg/mmol and 85.4 mg/mmol
- ACR (ALMS patients [1]; Week 12): 4.3 mg/mmol and 22.5 mg/mmol and 24.3 mg/mmol and 14.5 mg/mmol and 0.4 mg/mmol and <2.3 mg/mmol (3×) and 89.2 mg/mmol and 15.1 mg/mmol and 102.9 mg/mmol and 15.6 mg/mmol
- ACR (ALMS patients [1]; Week 24): 4.2 mg/mmol and 15.5 mg/mmol and 14.5 mg/mmol and 10.7 mg/mmol and 2.2 mg/mmol and 77.0 mg/mmol and <2.3 mg/mmol and 13.2 mg/mmol and 77.4 mg/mmol and 10.2 mg/mmol and 1.4 mg/mmol
- subjects in whom HbA1c decreased or did not change from baseline (ALMS patients [2]; 8/12 subjects): 66.7%
- Change from Baseline HbA1c, Mean (ALMS patients [2]; EP Week 12 (Week 36), N=10): 0.24%
- Change from Baseline HbA1c, Median (ALMS patients [2]; EP Week 12 (Week 36), N=10): 0.00%
- Change from Baseline HbA1c, Mean (ALMS patients [2]; EP Week 24 (Week 48), N=10): −0.28%
- Change from Baseline HbA1c, Median (ALMS patients [2]; EP Week 24 (Week 48), N=10): −0.30%
- Change from Baseline HbA1c, Mean (ALMS patients [2]; EP Week 36 (Week 60), N=9): −0.18%
- Change from Baseline HbA1c, Median (ALMS patients [2]; EP Week 36 (Week 60), N=9): −0.10%
- Change from Baseline HbA1c, Mean (ALMS patients [2]; EP Week 48 (Week 72), N=3): 0.13%
- Change from Baseline HbA1c, Median (ALMS patients [2]; EP Week 48 (Week 72), N=3): 0.10%
- HbA1c increase above baseline by the last study visit (ALMS patients [2]; Subject 826-001-001, 204-day break in treatment): 1%
- HbA1c reduction below baseline (ALMS patients [2]; Subjects 826-001-007, 826-001-009 and 826-001-014): 1%
- Change from Baseline HbA1c, Mean (ALMS patients [2]; Week 12, N=12): −0.53%
- Change from Baseline HbA1c, Median (ALMS patients [2]; Week 12, N=12): −0.55%
- Change from Baseline HbA1c, Mean (ALMS patients [2]; Week 24, N=12): −0.24%
- Change from Baseline HbA1c, Median (ALMS patients [2]; Week 24, N=12): −0.05%
- mean decrease in HbA1c from baseline (ALMS patients [2]; after 12 weeks of treatment, p=0.0144): 0.53%
- HbA1c (ALMS patients [2]; EP Week 12 (Week 36)): 12.7% and 5.1% and 5.4% (3×) and 7.5% and 7.3% and 6.4% and 6.2% and 12%
- HbA1c (ALMS patients [2]; EP Week 24 (Week 48)): 10.6% (2×) and 4.9% and 4.7% and 5.7% and 6.8% and 5.4% and 6.5% and 6.3% and 6.7%
- HbA1c (ALMS patients [2]; EP Week 36 (Week 60)): 11.2% and 5.1% and 5.0% and 7.5% and 5.4% and 6.8% (2×) and 6.4% and 9.1%
- HbA1c (ALMS patients [2]; EP Week 48 (Week 72)): 11.1% and 5.0% and 4.9%
- HbA1c (ALMS patients [2]; Week 12): 10.1% and 5.3% and 5.0% and 5.7% (2×) and 8.2% and 5.5% and 6.7% and 6.1% and 10.6% and 6.4% and 6.5%
- HbA1c (ALMS patients [2]; Week 24): 11.1% and 5.4% (2×) and 4.8% and 5.6% and 9.1% and 7.0% and 6.2% and 10.0% and 6.6% and 8.6% and 6.1%
